Structures are written as SMILES. Values joined by “and” are separate entries in the source; they are usually repeats but may differ in a detail not shown here. Equal values may be shown once. Inconclusive results and toxic doses are left out.

The test system of the experiment is P388 leukemia ip, CD2F1 mice, survival T/C. Description: NCI In Vivo Anticancer Drug Screen. Data for tumor model P388 Leukemia (intraperitoneal) in CD2F1 (CDF1) mice. The settings on record: endpoint: median survival time, higher = longer survival. The method, boiled down: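 Mice carrying the transplanted tumor received test compound or vehicle. Survival was recorded in each group, and the value is the treated-group measurement divided by that of the vehicle-treated control group.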

The mark [1] stands for this setting: dose: 100.0 mg/kg/injection, schedule: Q01DX001 (ip), vehicle: saline.
Setting [2] is: dose: 200.0 mg/kg/injection, schedule: Q01DX001 (ip), vehicle: saline.
Where [3] appears, read: dose: 400.0 mg/kg/injection, schedule: Q01DX001 (ip), vehicle: saline.
[4] abbreviates: dose: 100.0 mg/kg/injection, schedule: Q01DX005 (ip), vehicle: Klucel (hydroxypropylcellulose) (HPC).
The mark [5] stands for this setting: dose: 200.0 mg/kg/injection, schedule: Q01DX005 (ip), vehicle: Klucel (hydroxypropylcellulose) (HPC).
[6] abbreviates: dose: 50.0 mg/kg/injection, schedule: Q01DX005 (ip), vehicle: saline with Tween-80.
Where [7] appears, read: dose: 100.0 mg/kg/injection, schedule: Q01DX005 (ip), vehicle: saline with Tween-80.
Setting [8] is: dose: 200.0 mg/kg/injection, schedule: Q01DX005 (ip), vehicle: saline with Tween-80.
The mark [9] stands for this setting: dose: 50.0 mg/kg/injection, schedule: Q01DX005 (ip), vehicle: saline.
[10] abbreviates: dose: 100.0 mg/kg/injection, schedule: Q01DX005 (ip), vehicle: saline.
The mark [11] stands for this setting: dose: 200.0 mg/kg/injection, schedule: Q01DX005 (ip), vehicle: saline.
The mark [12] stands for this setting: dose: 50.0 mg/kg/injection, schedule: Q01DX009 (ip), vehicle: saline.
Setting [13] is: dose: 100.0 mg/kg/injection, schedule: Q01DX009 (ip), vehicle: saline.
The mark [14] stands for this setting: dose: 60.0 mg/kg/injection, schedule: Q01DX005 (ip), vehicle: saline with Tween-80.
[15] abbreviates: dose: 120.0 mg/kg/injection, schedule: Q01DX005 (ip), vehicle: saline with Tween-80.
The mark [16] stands for this setting: dose: 100.0 mg/kg/injection, schedule: Q01DX001 (ip), vehicle: saline with Tween-80.
Where [17] appears, read: dose: 200.0 mg/kg/injection, schedule: Q01DX001 (ip), vehicle: saline with Tween-80.
Setting [18] is: dose: 400.0 mg/kg/injection, schedule: Q01DX001 (ip), vehicle: saline with Tween-80.
[19] abbreviates: dose: 100.0 mg/kg/injection, schedule: Q04DX002 (ip), vehicle: saline.
Where [20] appears, read: dose: 200.0 mg/kg/injection, schedule: Q04DX002 (ip), vehicle: saline.
[21] abbreviates: dose: 400.0 mg/kg/injection, schedule: Q04DX002 (ip), vehicle: saline.
Where [22] appears, read: dose: 50.0 mg/kg/injection, schedule: Q01DX009 (ip), vehicle: saline with Tween-80.

As to `O=C(N/N=C/c1ccc(Cl)cc1)c1cc2ccccc2oc1=O`, the T/C by setting is: under setting [1], 100 % of control; under setting [2], 103 % of control; under setting [3], 105 % of control.
For `Cn1c(=O)c2c(ncn2Cc2ccc(O)c([N+](=O)[O-])c2)n(C)c1=O`, the T/C is, setting by setting: (dose: 25.0 mg/kg/injection, schedule: Q01DX005 (ip), vehicle: Klucel (hydroxypropylcellulose) (HPC)) 91 % of control; under setting [4], 94 % of control; under setting [5], 92 % of control.
Take `COC(=O)c1ccc(C)c(N)c1`: the T/C reads like this: under setting [6], 102 % of control; under setting [7], 104 % of control; under setting [8], 102 % of control.
For the molecule `COc1c(C)n(CCO)ccc1=O`, the T/C is 102 % of control and 104 % of control under setting [9]; 99 % of control and 100 % of control under setting [10]; 99 % of control and 100 % of control under setting [11]; 99 % of control and 103 % of control (dose: 400.0 mg/kg/injection, schedule: Q01DX005 (ip), vehicle: saline).
Turning to `C=CCOc1cc2c(cc1C(CC)c1ccc(OCc3ccccc3)cc1)OCO2` (stereo unspecified), the T/C is, setting by setting: under setting [6], 102 % of control; under setting [7], 100 % of control; under setting [8], 95 % of control.
Consider `O=S(=O)(c1ccc(Br)cc1)S(=O)(=O)c1ccc(Br)cc1`, for which the T/C reads like this: under setting [12], 87 % of control; under setting [13], 92 % of control; (dose: 200.0 mg/kg/injection, schedule: Q01DX009 (ip), vehicle: saline) 95 % of control.
As for `CCOC(=O)C(=O)N1c2c(nc(N)[nH]c2=O)NCC1CNc1ccc(C(=O)NC(CCC(=O)O)C(=O)O)cc1` (stereo unspecified) (tested in a mixture with another compound), the T/C is 111 % of control (dose: 50.0 mg/kg/injection, schedule: Q01DX001 (ip), vehicle: saline); 101 % of control under setting [1]; 101 % of control under setting [2].
As for `CCN(CC)C(=O)c1c(C(=O)OC)c(C)n(NC(N)=O)c1C`, the T/C runs as follows: under setting [6], 105 % of control; under setting [7], 107 % of control; under setting [8], 108 % of control.
Regarding `O=[N+]([O-])c1ccc(C(Nc2nncs2)Nc2nncs2)c([N+](=O)[O-])c1`, the T/C was 97 % of control (dose: 50.0 mg/kg/injection, schedule: Q01DX005 (ip), vehicle: Klucel (hydroxypropylcellulose) (HPC)); 96 % of control under setting [4]; 100 % of control under setting [5].
In the case of `O=C1OC(C2OC(=O)C(=O)C2C(=O)c2ccc([N+](=O)[O-])cc2)C(C(=O)c2ccc([N+](=O)[O-])cc2)C1=O` (stereo unspecified), the T/C reads like this: under setting [14], 98 % of control; under setting [15], 94 % of control.
Regarding `Cc1ccc(-n2nc(C)cc2C)nn1`, the T/C was 99 % of control under setting [12] and 101 % of control under setting [13].
As for `CC(=O)OC1CC(C)(O)Cc2cc3c(c(O)c21)C(=O)c1c(O)cc2c(c1C3=O)OC1OC2(C)C(O)C(N(C)C)C1O` (stereo unspecified), the T/C was 153 % of control (dose: 3.5 mg/kg/injection, schedule: Q01DX009 (ip), vehicle: other); 166 % of control (dose: 7.0 mg/kg/injection, schedule: Q01DX009 (ip), vehicle: other); 167 % of control (dose: 14.0 mg/kg/injection, schedule: Q01DX009 (ip), vehicle: other).
For `CCOc1c(N=Nc2cccc(Cl)c2)c(C)nn1C(N)=S`, the T/C reads like this: (dose: 60.0 mg/kg/injection, schedule: Q01DX005 (ip), vehicle: Klucel + Tween-80) 102 % of control; (dose: 120.0 mg/kg/injection, schedule: Q01DX005 (ip), vehicle: Klucel + Tween-80) 93 % of control; (dose: 240.0 mg/kg/injection, schedule: Q01DX005 (ip), vehicle: Klucel + Tween-80) 95 % of control.
Take `Brc1cnc2nc(Cc3cccc4ccccc34)[nH]c2c1`: the T/C was 109 % of control under setting [16], 103 % of control under setting [17] and 97 % of control under setting [18].
On to `O=C1OCC23CCC4C1C42CC1(CC3)OCCO1` (stereo unspecified), for which the T/C is 99 % of control under setting [9], 101 % of control under setting [10] and 98 % of control under setting [11].
For `C=CCSc1nc2ccc(NC(=O)/C=C/C(=O)O)cc2s1`, the T/C runs as follows: (dose: 50.0 mg/kg/injection, schedule: Q01DX009 (ip), vehicle: Klucel (hydroxypropylcellulose) (HPC)) 95 % of control; (dose: 100.0 mg/kg/injection, schedule: Q01DX009 (ip), vehicle: Klucel (hydroxypropylcellulose) (HPC)) 93 % of control; (dose: 200.0 mg/kg/injection, schedule: Q01DX009 (ip), vehicle: Klucel (hydroxypropylcellulose) (HPC)) 102 % of control.
`O=c1[nH]c(=O)c2nc(-c3ccc(Cl)c(Cl)c3)cnc2[nH]1`: the T/C by setting is: under setting [1], 100 % of control; under setting [2], 116 % of control; under setting [3], 91 % of control.
As to `CCN1N=Nc2ccccc2C1O` (stereo unspecified), the T/C by setting is: (dose: 12.5 mg/kg/injection, schedule: Q04DX002 (ip), vehicle: saline) 98 % of control; (dose: 25.0 mg/kg/injection, schedule: Q04DX002 (ip), vehicle: saline) 98 % of control; (dose: 50.0 mg/kg/injection, schedule: Q04DX002 (ip), vehicle: saline) 100 % of control.
`O=C(CCl)n1ccc(=O)n(C(=O)CCl)c1=O`: the T/C is, setting by setting: under setting [19], 113 % of control; under setting [20], 100 % of control; under setting [21], 103 % of control.
As for `COC(=O)C1CCCC(C(=O)O)C1` (stereo unspecified), the T/C reads like this: (dose: 100.0 mg/kg/injection, schedule: Q01DX002 (ip), vehicle: saline with Tween-80) 102 % of control; (dose: 200.0 mg/kg/injection, schedule: Q01DX002 (ip), vehicle: saline with Tween-80) 102 % of control; (dose: 400.0 mg/kg/injection, schedule: Q01DX002 (ip), vehicle: saline with Tween-80) 117 % of control.
Consider `CCOC(=O)/C=C(\C)SC1=CC(=O)c2ccccc2C1=O`, for which the T/C reads like this: (dose: 3.13 mg/kg/injection, schedule: Q01DX009 (ip), vehicle: saline with Tween-80) 86 % of control; (dose: 6.25 mg/kg/injection, schedule: Q01DX009 (ip), vehicle: saline with Tween-80) 94 % of control; (dose: 12.5 mg/kg/injection, schedule: Q01DX009 (ip), vehicle: saline with Tween-80) 99 % of control and 122 % of control; (dose: 25.0 mg/kg/injection, schedule: Q01DX009 (ip), vehicle: saline with Tween-80) 100 % of control and 111 % of control; under setting [22], 100 % of control and 107 % of control.
For the molecule `Cc1ccc(S(=O)(=O)ONNc2nccc3ccccc23)cc1`, the T/C was 103 % of control under setting [19], 96 % of control under setting [20] and 97 % of control under setting [21].
For the molecule `CCOC(=O)C1=C(O)c2ccccc2S(=O)(=O)N1C` (tested in a mixture with another compound), the T/C is, setting by setting: under setting [14], 98 % of control; under setting [15], 107 % of control; (dose: 240.0 mg/kg/injection, schedule: Q01DX005 (ip), vehicle: saline with Tween-80) 97 % of control.
In the case of `CC(=O)CC(=O)c1ccccc1.CC(=O)CC(=O)c1ccccc1.[CH3][Sn][CH3]`, the T/C (dose: 100.0 mg/kg/injection, schedule: Q01DX001 (ip), vehicle: Klucel (hydroxypropylcellulose) (HPC)) was 95 % of control; the T/C (dose: 200.0 mg/kg/injection, schedule: Q01DX001 (ip), vehicle: Klucel (hydroxypropylcellulose) (HPC)) was 99 % of control; the T/C (dose: 400.0 mg/kg/injection, schedule: Q01DX001 (ip), vehicle: Klucel (hydroxypropylcellulose) (HPC)) was 96 % of control.
As for `Cc1ccc(S(=O)(=O)OC(=C(F)F)[Si](C)(C)C)cc1`, the T/C reads like this: under setting [22], 102 % of control; (dose: 100.0 mg/kg/injection, schedule: Q01DX009 (ip), vehicle: saline with Tween-80) 94 % of control.
As to `On1cccc2c(Br)cnc1-2`, the T/C by setting is: under setting [16], 98 % of control; under setting [17], 99 % of control; under setting [18], 90 % of control.
Turning to `COC(=O)c1cccc2c(=O)c(CCl)c(-c3ccccc3)sc12`, the T/C by setting is: under setting [16], 93 % of control; under setting [17], 91 % of control; under setting [18], 91 % of control.

These data come from PubChem BioAssay AID330 (DTP/NCI, 2004).
